Assay results as given in ChEMBL document CHEMBL6096716, “Second-Generation Cap Analogue Prodrugs for Targeting Aberrant Eukaryotic Translation Initiation Factor 4E Activity in Cancer” (ACS Med Chem Lett, 2025).
One block for each compound: values may come before it. The source made the active and inactive calls. No cut-off for these calls is given here.

Legend:
[1] = biological target: T1, Eukaryotic translation initiation factor 4E (Homo sapiens, UniProt P06730); assay: Induction of thermal stabilization of eIF4E in human HeLa cell lysates incubated for 1 hr at 42 to 52 degreeC by CETSA based Western blot analysis; assay type: subcellular
[2] = biological target: T1, Eukaryotic translation initiation factor 4E; assay: Competitive inhibition of human 10 his-tagged eIF4E extracted from Escherichia coli BL21 (DE3) cells incubated for 40 mins by fluorescence polarization assay
[3] = system: A2058; assay: Antiproliferative activity against human A2058 cells harbouring BRAF V600E mutant assessed as cell death at 50 uM incubated for 48 hrs by Celltiter-glo assay; assay type: functional, cell-based
[4] = system: A2058; assay: Antiproliferative activity against human A2058 cells harbouring BRAF V600E mutant assessed as cell death incubated for 48 hrs by Celltiter-glo assay; assay type: functional, cell-based; settings: for EC50: A2058, 48 h; for Activity: dose 10-60 µM
[5] = system: A2058; assay: Downregulation of ODC1 expression in human A2058 cells incubated for 6 hrs by Western blot analysis; assay type: functional, cell-based
[6] = system: SK-MEL-2; assay: Antiproliferative activity against human SK-MEL-2 cells at 1.0 to 1.8 uM incubated for 48 hrs by Celltiter-glo assay; assay type: functional, cell-based; settings: dose 1-1.8 µM
[7] = system: A2058; assay: Effect on c-Myc expression in human A2058 cells incubated for 6 hrs by Western blot analysis; assay type: functional, cell-based
[8] = system: A2058; assay: Downregulation of CCND1 expression in human A2058 cells incubated for 6 hrs by Western blot analysis; assay type: functional, cell-based
[9] = system: A-375; assay: Antiproliferative activity against human A-375 cells incubated for 48 hrs by Celltiter-glo assay; assay type: functional, cell-based; settings: A-375, 48 h
[10] = system: A2058; assay: Downregulation of CCND3 expression in human A2058 cells incubated for 6 hrs by Western blot analysis; assay type: functional, cell-based

T1 sequence (P06730 whole entry): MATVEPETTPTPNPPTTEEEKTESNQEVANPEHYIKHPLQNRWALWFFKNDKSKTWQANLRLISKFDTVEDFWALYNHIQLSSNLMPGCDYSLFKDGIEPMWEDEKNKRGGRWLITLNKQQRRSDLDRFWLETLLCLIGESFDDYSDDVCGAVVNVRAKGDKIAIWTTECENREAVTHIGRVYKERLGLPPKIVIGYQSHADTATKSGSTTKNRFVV

- Activity [1]: Active
- IC50 [2]: 4.1 µM
Compound: Nc1nc2c(c(=O)[nH]1)[n+](Cc1cc3cc(Cl)ccc3o1)cn2Cc1cccc(CCP(=O)(O)O)c1

Compound: CC(C)(C)C(=O)OCOP(=O)(OCOC(=O)C(C)(C)C)c1cccc(Cn2c[n+](Cc3cc4cc(Cl)ccc4o3)c3c(=O)[nH]c(N)nc32)c1
- Activity [3]: Active; Compound Found To Be Less Active

Compound: CC(C)(C)C(=O)OCOP(=O)(CCc1ccccc1Cn1c[n+](Cc2cc3cc(Cl)ccc3o2)c2c(=O)[nH]c(N)nc21)OCOC(=O)C(C)(C)C
- EC50 [4]: 51.3 µM
- Activity [4]: Dose-dependent-effect

Compound: CC(C)(C)C(=O)OCOP(=O)(CCc1cccc(-n2c[n+](Cc3cc4cc(Cl)ccc4o3)c3c(=O)[nH]c(N)nc32)c1)OCOC(=O)C(C)(C)C
- Activity [3]: Active

Compound: CC(C)(C)C(=O)OCOP(=O)(Cc1cccc(Cn2c[n+](Cc3cc4cc(Cl)ccc4o3)c3c(=O)[nH]c(N)nc32)c1)OCOC(=O)C(C)(C)C
- Activity [3]: Active; Compound Found To Be Less Active

Compound: CC(C)(C)C(=O)OCOP(=O)(CCc1ccc(Cn2c[n+](Cc3cc4cc(Cl)ccc4o3)c3c(=O)[nH]c(N)nc32)cc1)OCOC(=O)C(C)(C)C
- Activity [4]: inactive

- EC50 [9]: 54 µM
Compound: CC(C)(C)C(=O)OCOP(=O)(CCc1cccc(Cn2c[n+](Cc3cc4cc(Cl)ccc4o3)c3c(=O)[nH]c(N)nc32)c1)OCOC(=O)C(C)(C)C
- EC50 [4]: 40 µM
- Activity [4]: Dose-dependent-effect
- Activity [5]: Active
- Activity [6]: inactive
- Activity [7]: inactive
- Activity [3]: Active; Compound Showed Near Complete Cell Death
- Activity [8]: Active
- Activity [10]: Active

- IC50 [2]: 17.2 µM
Compound: Nc1nc2c(c(=O)[nH]1)[n+](Cc1cc3cc(Cl)ccc3o1)cn2Cc1ccccc1CCP(=O)(O)O
